Where a SMILES comes first, the peptide text is derived from it. [ ]: non-standard residue; d: D form. Arg(Me) = CNC(=N)NCCC[C@H](N)C(=O)O; d3Pal = N[C@H](Cc1cccnc1)C(=O)O; azaGly = NNC(=O)O
Tests used:
Assay type in all cases: toxicity, cell-based
[1] = system: HEK-293T; assay: Incucyte cell viability with HEK293T; settings: human, 10 µM, compound concentration 10 uM
[2] = system: Fibroblast; assay: Incucyte cell viability with human fibroblast; settings: 10 µM, compound concentration 10 uM
[3] = system: U2OS; assay: Incucyte cell viability with U2OS; settings: human, 10 µM, compound concentration 10 uM
[4] = 0 h, replicate number 2, timepoint 0 hours
[5] = 6 h, replicate number 1, timepoint 6 hours
[6] = 6 h, replicate number 2, timepoint 6 hours
[7] = 12 h, replicate number 1, timepoint 12 hours
[8] = 12 h, replicate number 2, timepoint 12 hours
[9] = 18 h, replicate number 1, timepoint 18 hours
[10] = 18 h, replicate number 2, timepoint 18 hours
[11] = 24 h, replicate number 1, timepoint 24 hours
[12] = 24 h, replicate number 2, timepoint 24 hours
[13] = 0 h, replicate number 1, timepoint 0 hours
Note: unitless GR value; below 1 slowed growth and below 0 cell loss.

| Compound | Growth Rate [1, 5] | Growth Rate [1, 7] | Growth Rate [1, 8] | Growth Rate [1, 9] | Growth Rate [1, 10] | Growth Rate [1, 11] | Growth Rate [1, 12] | Growth Rate [2, 5] | Growth Rate [2, 7] | Growth Rate [2, 9] | Growth Rate [2, 10] | Growth Rate [2, 11] | Growth Rate [2, 12] | Growth Rate [3, 13] | Growth Rate [3, 4] | Growth Rate [3, 5] | Growth Rate [3, 7] | Growth Rate [3, 10] | Growth Rate [2, 6] | Growth Rate [2, 8] | also measured |
| --- | --- | --- | --- | --- | --- | --- | --- | --- | --- | --- | --- | --- | --- | --- | --- | --- | --- | --- | --- | --- | --- |
| CCCCCCCCc1ccc(CC[C@](N)(CO)COP(=O)(O)O)cc1 [FTY720-P] | -0.47 | -0.14 | 0.46 | 0.01 | 0.48 | 0.01 | 0.37 | 0.71 | 0.21 | 0.14 | 0.85 | 0.09 | 0.65 | 0.2 | -0.7 | 0.87 | 0.79 | 1 | – | – | Growth Rate [1, 4]: 0.4; Growth Rate [1, 6]: 0.66; Growth Rate [3, 6]: 0.43 |
| CNC(=N)NCCC[C@H](NC(=O)[C@H](CC(C)C)NC(=O)NNC(=O)[C@H](Cc1ccccc1)NC(=O)[C@H](CO)NC(=O)[C@H](CC(N)=O)NC(=O)[C@@H](Cc1cccnc1)NC(=O)[C@H](N)Cc1ccc(O)cc1)C(=O)NCC(N)=O [KISS1-543] (H-[dY][d3Pal]NSF[azaGly]L[Arg(Me)]G-NH2) | 0.69 | 0.68 | – | 0.68 | – | 0.71 | 0.84 | – | 0.41 | 0.5 | 0.76 | 0.46 | 0.72 | – | 0.72 | 0.84 | – | 0.99 | 0.8 | – | Growth Rate [1, 13]: 0.75; Growth Rate [1, 4]: 0.71; Growth Rate [2, 4]: 0.66; Growth Rate [3, 8]: 0.89; Growth Rate [3, 12]: 1 |
| Cl.Clc1ccc2nsnc2c1NC1=NCCN1 [TIZANIDINE HYDROCHLORIDE] | – | 1 | 0.61 | – | – | – | – | -0.29 | 0.72 | 0.25 | – | 0.25 | – | 0.36 | -1 | 0.31 | – | – | – | – | Growth Rate [1, 6]: 0.88; Growth Rate [2, 4]: 0.25 |
| CC(=O)O[C@H]1C(=O)[C@@]2(C)[C@H]([C@H](OC(=O)c3ccccc3)[C@]3(O)C[C@H](OC(=O)[C@H](O)[C@@H](NC(=O)c4ccccc4)c4ccccc4)C(C)=C1C3(C)C)[C@]1(OC(C)=O)CO[C@@H]1C[C@@H]2O [PACLITAXEL] | -0.58 | -0.24 | -0.18 | -0.17 | -0.18 | -0.03 | -0.1 | -0.93 | -0.65 | -0.57 | 0.02 | -0.4 | 0.16 | -0.24 | 0.29 | 0.37 | 0.12 | -0.14 | -0.73 | -0.32 | Growth Rate [1, 6]: -0.59; Growth Rate [3, 6]: -0.14; Growth Rate [3, 8]: -0.2; Growth Rate [3, 9]: 0.09; Growth Rate [3, 11]: 0.07; Growth Rate [3, 12]: -0.09 |
| CNC(=O)[C@H]1O[C@@H](n2cnc3c(NCc4cccc(I)c4)ncnc32)[C@H](O)[C@@H]1O [IB-MECA] | – | – | 1 | 0.64 | 0.98 | 0.64 | 0.83 | 0.12 | 0.45 | 0.7 | 0.24 | 0.54 | 0.42 | -0.65 | -0.98 | 0.98 | 0.89 | 0.76 | -0.56 | 0.1 | Growth Rate [1, 13]: 0.11; Growth Rate [1, 4]: 0.3; Growth Rate [2, 13]: 0.22; Growth Rate [3, 6]: 0.82; Growth Rate [3, 8]: 0.85; Growth Rate [3, 9]: 0.79; Growth Rate [3, 12]: 0.81 |
| CC(C)n1cc(-c2ccc(N3CCN(C)CC3)c(NC(=O)c3ccc(-c4ccncc4)o3)c2)cn1 | -0.29 | -0.21 | -0.04 | -0.16 | 0.34 | 0.11 | 0.64 | -0.14 | 0.05 | -0.06 | 0.81 | 0.03 | 0.94 | 0.32 | -1 | -0.04 | 0.36 | – | 0.39 | 0.57 | Growth Rate [1, 6]: -0.21; Growth Rate [2, 4]: 0.57; Growth Rate [3, 9]: 0.95 |
| CCCCC[C@H](O)/C=C/[C@H]1[C@H](O)CC(=O)[C@@H]1CCCCCCC(=O)O [ALPROSTADIL] | 0.92 | – | 1 | – | 0.94 | – | – | – | – | – | – | – | – | 0.29 | -1 | -0.08 | 0.28 | 0.83 | – | – | Growth Rate [1, 13]: -0.15; Growth Rate [1, 4]: -0.14; Growth Rate [2, 13]: -0.23; Growth Rate [2, 4]: 0.17; Growth Rate [3, 6]: 0.85; Growth Rate [3, 8]: 0.88; Growth Rate [3, 9]: 0.53; Growth Rate [3, 11]: 0.85; Growth Rate [3, 12]: 0.97 |
| COc1cc(OC2CCN(C(C)=O)CC2)ccc1C(=O)N1CCC(N2C(=O)OCc3ccccc32)CC1 | – | – | – | – | – | – | – | -0.07 | 0.28 | 0.37 | – | 0.24 | – | 0.75 | – | 0.85 | – | 0.78 | -0.41 | 0.65 | Growth Rate [1, 13]: 0.92; Growth Rate [3, 6]: 0.79; Growth Rate [3, 8]: 0.77; Growth Rate [3, 9]: 0.91; Growth Rate [3, 11]: 0.91; Growth Rate [3, 12]: 0.88 |
| COC1(C[S@@+]([O-])c2ccccc2)CCN(CCc2c[nH]c3ccc(F)cc23)CC1 | – | – | 0.77 | 0.91 | – | 0.8 | – | 0.42 | 0.32 | 0.49 | 0.53 | 0.53 | 0.79 | 0.42 | -1 | -0.09 | – | – | -0.24 | 0.15 | Growth Rate [1, 13]: 0.79; Growth Rate [1, 6]: 0.72 |
| CCCCCCCCCCCCCCC[C@@H](O)[C@@H](N)COP(=O)(O)O | 0.25 | 0.48 | 0.76 | 0.51 | 0.88 | 0.63 | 0.74 | -0.14 | 0.44 | 0.43 | 0.7 | 0.23 | 0.73 | – | – | – | 0.64 | – | 0.42 | 0.66 | Growth Rate [1, 4]: 0.71; Growth Rate [2, 4]: 0.12 |
